Target: Stromal cell-derived factor 1 (Homo sapiens) (UniProt P48061)
Assay: Binding affinity to CXCL12 in human THP1 cells assessed as inhibition of CXCL12-induced cell migration at 25 uM incubated for 2 hrs by flow cytometry based chemotaxis assay
Settings: THP-1

Sequence of Stromal cell-derived factor 1 (Homo sapiens) (P48061 whole entry): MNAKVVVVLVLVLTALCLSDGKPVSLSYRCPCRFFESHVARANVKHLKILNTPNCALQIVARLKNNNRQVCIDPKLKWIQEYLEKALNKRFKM

inhibition | Compound
20% | O=C(Nc1ccccc1)Nc1ccc(-c2nnn[nH]2)cc1
40% | O=C(NCCc1ccccc1)Nc1ccc(-c2nnn[nH]2)cc1
